Data taken from patent US20180235870A1, “TRANSDERMAL FORMULATIONS FOR DELIVERY OF BERBERINE COMPOUNDS, AND THEIR USE IN THE TREATMENT OF BERBERINE-RESPONSIVE DISEASES AND CONDITIONS” (DELIVRA INC., priority 2015, published 2018).

Experiments:
[1] = Circulating berberine after chronic administration by various routes (Example 23); type: in vivo; details: male, rat, plasma, oral, 180 mg/kg/dose; 15 days administration BID, Zucker fa/fa rats
[2] = Plasma concentrations of berberine, berberine glucuronide, simvastatin and simvastatin hydroxy acid in rats (Example 20); type: in vivo; details: rats (n=2); oral 180 mg/kg/dose or transdermal 3.6 g/kg/dose
[3] = test system: male Zucker rat, a model of type-2 diabetes and metabolic disorder; assay: Effect of berberine, metformin and simvastatin on body mass, lipid biomarkers, food and water intake, clinical chemistry (Example 18); type: in vivo, obese male Zucker fa/fa rats; details: Zucker rats, Days 0 to 28
Method: All in vivo animal husbandry, treatment regiments, and sample collections were completed by InterVivo. The study was completed using obese male Zucker fa/fa rats (Charles River) at 10 weeks of age. […] Shaving was performed under anaesthesia one day prior to initiation of test article administration. The area was further shaven, as needed, over the course of the dosing period to ensure accurate drug application and absorption. For dosing procedures, animals were restrained and the transdermal test articles applied in a uniform layer over the entire shaved area. The shaved administration area was cleaned daily with paper towel before the subsequent transdermal dose was administered. Animals receiving test articles via oral gavage were restrained, and a ball-tipped gavage needle (18G) attached to a syringe containing the dosing solution was first inserted into the mouth, and then into the stomach. To determine the appropriate depth of insertion of the needle, the position corresponding to the last rib was measured prior to insertion. […] Group A), oral administration of berberine (180 mg/kg/dose; […] Group C), and oral administration of the vehicle (Group D) (Table 19). […] Group F), or with orally-administered metformin (200 mg/kg/dose; Group G). […] On Day 28, the animals were dosed in the morning only, prior to euthanasia and tissue collection. Animal body weights were performed once weekly from Day −34 to −2 and daily from Day −1 to 28. Rats were weighed, and the scales were operated and maintained, according to standard operating procedures. Food and water consumption measurements were taken over a 24 hour period, once weekly, from Days 0 to 28. Blood was collected via tail nick on Day-1 to determine unfasted blood glucose level for group allocation. Whole blood was collected via the saphenous vein or other appropriate route on Days 0, 7, 14, 21 and 28 immediately prior to test article administration. […] On Day 28, subjects were anaesthetized with isoflurane, and whole blood was collected via cardiac puncture 2.5 hours (+/−5 minutes) following treatment administration on this day. […]

male Zucker rats (fa/fa) = assay: Efficacy of administration routes and dihydroberberine in a model of metabolic syndrome (Example 22); type: in vivo; details: BID
Method: This study examined the efficacy of administration of a derivative of berberine (dihydroberberine) in transdermal formulations in 24 male Zucker rats (fa/fa), similar to the study protocol in Example 19. The following formulations were prepared: […] Animals were maintained without treatment until ten weeks of age at which time groups were randomized by weight and blood glucose. Animal weights were recorded daily and expressed here as percent change from Day zero.

physchem = type: physicochemical
Method: The berberine partition coefficient procedure was used to assess the properties of berberine, which was determined to be an overall hydrophilic molecule. […] The solution was shaken by hand for 30 seconds and allowed to stand for 5 minutes. […] The solution was mixed for one hour using a rotating tube inverter (VWR, 13916-822). A blank sample containing water and octanol (0.7 mL of each) was prepared. […] The sample was monitored using UV/V is at wavelengths 230/600 nm and 280/600 nm. Autosampler temperature was maintained at 24° C. and column was at 30° C. The two layers of the sample were injected by adjusting the injection needle height. 0 mm was used for the water layer and +11 mm was used for the octanol layer. The retention time for berberine elution is 1.4 minutes and peak areas were assigned using the onboard Agilent software based upon absorbance at 230 nm. A HPLC-UV chromatogram was recorded for each layer of the partition according the procedure described above. The area under the peak between 1.2-2.2 minutes in the chromatogram was used as a measure of concentration of berberine. A linear relationship was assumed to exist between absorbance and concentration of berberine at the concentrations evaluated. […] The area-blank (cps) was used directly in the equation below.

concentration at 15 days [1]: 101 ng/mL | berberine plasma concentration [2]: 0.44 ng/mL | berberine in the lipophilic octanol solvent (physchem): ~3% | logD (physchem): -0.63 | Octanol area (cps) 230 nm (physchem; Partition): 1763 cps | Water area (cps) 230 nm (physchem; Partition): 34696 cps | Octanol area (cps) 230 nm (physchem; Partition minus blank): 807 cps | Water area (cps) 230 nm (physchem; Partition minus blank): 34342 cps | berberine remaining within the water layer (physchem; octanol/water): 97%
Compound: COc1ccc2cc3[n+](cc2c1OC)CCc1cc2c(cc1-3)OCO2 [berberine, Berberine]
cholesterol and triglyceride blood counts (in words) [3]: reduced cholesterol and triglyceride blood counts | glucose levels (in words) ([3]; non-fasting): largest reduction in glucose levels | cholesterol levels on Day 14 (mmol/L+/−SEM) (male Zucker rats (fa/fa)): 8.3 ± 0.7 mmol/L | rate of weight gain (grams/day) (male Zucker rats (fa/fa)): 1.7 grams/day | triglyceride levels on Day 14 (mmol/L+/−SEM) (male Zucker rats (fa/fa)): 14.8 ± 3.0 mmol/L
